# Data published in patent US9492495B2, “Therapeutic use of agonists or antagonists of bradykinin receptor 1 or 2, for modulation collateral blood vessel growth” (MAX-DELBRUECK-CENTRUM FUER MOLEKULARE MEDIZIN, priority 2010, dated 2016).
# Legend:
# [1] = test system: cerebral arteriogenesis (posterior cerebral artery collateral pathway); experiment: 3-vessel occlusion (3-VO) cerebral arteriogenesis model: collateral growth / posterior cerebral artery diameter; format: in vivo, rat; conditions: for arteriogenesis (collateral growth) / cerebral arteriogenesis: rat 3-VO model; for arteriogenesis (collateral growth): antagonist treatment, 3 weeks post 3-VO (FIG. 5); for artery diameter changes (posterior cerebral artery) / collateral arterial growth: rat 3-VO, 3 weeks; for artery diameter changes (posterior cerebral artery): compared with untreated controls; for collateral arterial growth: ipsilateral and contralateral collateral pathways (FIGS. 5B and 5C); for cerebral arteriogenesis: BR1 agonist treatment, 1 week post 3-VO (FIG. 6)
# Procedure: Pharmacological modulation of arteriogenesis was analyzed using a 3 vessel occlusion (3-VO) model for cerebral arteriogenesis in the rat (Occlusion of both vertebral arteries and one carotid artery). Upon occlusion of three of four blood-supplying arteries to the brain, blood flow is redistributed by the recruitment of collateral pathways such as the posterior cerebral artery to supply the hypoperfusion area with blood. The 3-VO model in the rat has been established since 2003 and is acknowledged as a hypoperfusion model for testing cerebral arteriogenesis (Busch, Buschmann et al. 2003). By using the 3-VO model, relevant therapeutic stimulation of arteriogenesis was shown for instance by the application of GM-CSF (Buschmann, Circulation 2003). Either by inhibition or stimulation of the bradykinin receptor signaling pathways, arteriogenesis was determined and physiological parameters of the brain were tested. […] The characterization of arteriogenesis was carried out via measurement of the artery or blood vessel diameter (posterior cerebral artery-PCA) in addition to via a measurement of the cerebrovascular reactivity (perfusion reserves in the brain). Cerebrovascular anatomy was studied after maximal vasodilation by a modification of the postmortem latex perfusion method of Maeda et al (Maeda, Hata et al. 1998).
# [2] = test system: cerebrovascular reactivity (perfusion reserves in the brain); experiment: 3-VO cerebral arteriogenesis model: cerebrovascular reactivity (acetazolamide, laser-doppler); format: in vivo; conditions: rat; for cerebrovascular reactivity (CVR), increase in blood flow: three weeks after 3-VO (FIG. 5D)
# Procedure: Pharmacological modulation of arteriogenesis was analyzed using a 3 vessel occlusion (3-VO) model for cerebral arteriogenesis in the rat (Occlusion of both vertebral arteries and one carotid artery). Upon occlusion of three of four blood-supplying arteries to the brain, blood flow is redistributed by the recruitment of collateral pathways such as the posterior cerebral artery to supply the hypoperfusion area with blood. The 3-VO model in the rat has been established since 2003 and is acknowledged as a hypoperfusion model for testing cerebral arteriogenesis (Busch, Buschmann et al. 2003). By using the 3-VO model, relevant therapeutic stimulation of arteriogenesis was shown for instance by the application of GM-CSF (Buschmann, Circulation 2003).
# The characterization of arteriogenesis was carried out via measurement of the artery or blood vessel diameter (posterior cerebral artery—PCA) in addition to via a measurement of the cerebrovascular reactivity (perfusion reserves in the brain). Cerebrovascular anatomy was studied after maximal vasodilation by a modification of the postmortem latex perfusion method of Maeda et al (Maeda, Hata et al. 1998).
# CVR is reduced through selective inhibition of the bradykinin B1 and B2 signaling pathways. Negative CVR values are based on the Steal phenomenon (Kuwabara, Ichiya et al. 1995). (FIG. 5D). Upon increase of the CO2 partial pressure under normal conditions, vessels in the brain are capable of increasing blood flow to around 20% of the normal blood flow. Directly after the 3-VO experiment no cerebrovascular reactivity is detectable anymore. Blood flow recovers within 3 weeks post 3-VO and the perfusion reserve is restored to around 10%.
# [3] = target: T1, Bradykinin receptor 1 (Homo sapiens, UniProt P46663); conditions: described as moderate; cited from earlier work
# T1 sequence (P46663 1-353): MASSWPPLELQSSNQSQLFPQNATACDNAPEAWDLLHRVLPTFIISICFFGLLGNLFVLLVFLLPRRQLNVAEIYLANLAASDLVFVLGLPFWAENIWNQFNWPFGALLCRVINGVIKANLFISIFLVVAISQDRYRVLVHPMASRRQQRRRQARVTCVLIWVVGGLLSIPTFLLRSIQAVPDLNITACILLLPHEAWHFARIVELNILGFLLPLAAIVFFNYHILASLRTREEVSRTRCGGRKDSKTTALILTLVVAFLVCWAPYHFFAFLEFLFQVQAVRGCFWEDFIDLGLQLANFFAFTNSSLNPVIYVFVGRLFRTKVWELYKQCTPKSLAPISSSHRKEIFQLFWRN
# [4] = target: T1, Bradykinin receptor 1; conditions: described as moderate; cited from earlier work; remark: listed apart in the source
# [5] = relative to the natural ligand Lys-desArg-bradykinin; cited from earlier work
Compound,arteriogenesis (collateral growth) [1],artery diameter changes (posterior cerebral artery) [1],collateral arterial growth [1],"cerebrovascular reactivity (CVR), increase in blood flow [2]",potency relative to the natural ligand Lys-desArg-bradykinin [3] [fold less],affinity relative to the natural ligand Lys-desArg-bradykinin [4],susceptibility toward proteolysis [5],cerebral arteriogenesis [1],cerebral arteriogenesis ([1]; listed as Sar[DPhe8]desArg-bradykinin),"diameter of the posterior cerebral artery (PCA) ([1]; rat, seven days after 3-VO, versus untreated rats after 3-VO (FIG. 6B,C))",cerebrovascular reactivity (CVR) ([2]; 1 week post 3-VO (FIG. 6D))
"NC(N)=NCCC[C@@H](N)C(=O)N[C@@H](CCCN=C(N)N)C(=O)N1CCC[C@H]1C(=O)N1C[C@H](O)C[C@H]1C(=O)NCC(=O)N[C@@H](Cc1cccs1)C(=O)N[C@@H](CO)C(=O)N1Cc2ccccc2C[C@@H]1C(=O)N1[C@H](C(=O)N[C@@H](CCCN=C(N)N)C(=O)O)C[C@@H]2CCCC[C@@H]21 [HOE-140, icatibant]",inhibited,reduced collateral growth,slightly,no increase in blood flow is detected,,,,,,,
"(Des-Arg^9, Leu^8)-bradykinin [H1960]",inhibited,increase in diameter to a lesser extent than in the untreated controls,strongly reduced,no increase in blood flow is detected,,,,,,,
Sar-[D-Phe8]-des-Arg9-bradykinin [R838],,,,,~2,about 11 fold less,lower susceptibility toward proteolysis,stimulated therapeutically,therapeutically enhanced,significantly greater,significantly increased
